Laboratory results as given in US20040034067A1, “Novel method of treatment” (priority 1999, published 2004).

What was measured:
Type in all cases: cell-based
PPARgamma mRNA = PPARgamma mRNA expression during human neutrophil attachment to culture dishes; details: data taken at 1 and 4 hours; human neutrophils (FIG. 1A)
Gelatinase B mRNA = Gelatinase B mRNA expression in attached human neutrophils; details: 1 μM of compound; 4 hours after neutrophil attachment; human neutrophils (FIG. 1B)
Protocol: (FIG. 1B): That the increase in Gelatinase B mRNA expression observed 4 hours after neutrophil attachment was reduced by treatment with 1 μM of Compound (I). Time zero (T0) refers to expression in naive human neutrophils prior to attachment.

MMP-9 release = assay: Inhibition of MMP-9 release from human neutrophils (human MMP-9 ELISA); details: Neutrophil, RPMI 1640 plus 1% BSA, 4 hours, 4 individuals, 4-parameter logistic curve fit
Protocol: FIG. 2: Inhibition of MMP-9 release.by Compound (I)
Neutrophils were isolated by countercurrent centrifugal elutriation to a purity of at least 98% and were maintained in RPMI 1640 plus 1% BSA. Cells were cultured in 48 well plates and attached to the wells within 1 hour of plating. Compound (I) (referred to as“BRL49653” in FIG. 2) was included from the beginning of the experiment. After 4 hours the media was removed and a human MMP-9 ELISA assay (Amersham) was performed. Data (from 4 different individuals) were not suitable for pooling directly, so for the purposes of the figure they were normalised to percentage of no compound control. Asterisks denote p<0.05 using a paired Student's t-test performed on the raw data prior to normalisation.

| IC50 (MMP-9 release) | Compound | PPARgamma mRNA during human neutrophil attachment (PPARgamma mRNA) | increase in Gelatinase B mRNA expression after neutrophil attachment (Gelatinase B mRNA) |
| --- | --- | --- | --- |
| – | GM-CSF: GM-CSF, treatment that further enhanced PPARgamma mRNA in attached human neutrophils | further enhanced | – |
| 10.6 nM | CN(CCOc1ccc(CC2SC(=O)NC2=O)cc1)c1ccccn1 (stereo not drawn) [Compound (I), 5-[4-[2-(N-methyl-N-(2-pyridyl)amino)ethoxy]benzyl]thiazolidine-2,4-dione] | – | reduced |
